# Target: T1, wild-type HIV-1 protease (Human immunodeficiency virus type 1 group M subtype B, UniProt P04585)
# T1 construct: Escherichia coli expressed wild-type HIV-1 protease protein
# Test: Assay for Inhibition of Microbial Expressed HIV Protease (peptide substrate cleavage, LC-MS/MS readout)
# Format: biochemical
# Details: E. coli expressed wild-type HIV-1 protease, mean of at least two independent experiments, read-out: HIV Pr Enzyme HIV1 PR IC50
# Procedure: Assay for Inhibition of Microbial Expressed HIV Protease
# Inhibition of Escherichia coli expressed wild-type HIV-1 protease protein was carried out with a peptide substrate [Val-Ser-Gln-Asn-(βnaphtyl)Ala-Pro-Ile-Val]. The inhibitor compound was preincubated with HIV-1 protease enzyme in assay buffer (50 mM sodium acetate, pH 5.5, 100 mM NaCl, and 0.1% BSA) for 30 minutes at room temperature. Peptide substrate was added to 400 μM in a total volume of 20 μL containing […] HIV-1 protease (final) after which the reaction was incubated for 1 hour at 30° C. […] The extent of inhibition of the reaction was determined from the peak area of the products.
# Data shown in the table reflects the mean of at least two independent experiments.
row,Structure (SMILES),IC50
1,"N#Cc1ncc2c(n1)CN(C(=O)c1cncc(CN3C(=N)NC(c4ccc(F)cc4)(c4ccc(F)cc4)C3=O)c1)C2 [Compound 393, 6-[(5-{[4,4-bis(4-fluorophenyl)-2-imino-5-oxoimidazolidin-1-yl]methyl}pyridin-3-yl)carbonyl]-6,7-dihydro-5H-pyrrolo[3,4-d]pyrimidine-2-carbonitrile]",67.1 nM
2,"CC(C)CC[C@]1(c2ccc(F)cc2)NC(=N)N(C(Cc2ccccc2)c2ccc(C(F)(F)F)c(C(=O)N3CCn4c(nnc4C(F)(F)F)C3)c2)C1=O (stereo partly drawn) [Compound 54, (5R)-5-(4-fluorophenyl)-2-imino-5-(3-methylbutyl)-3-{2-phenyl-1-[4-(trifluoromethyl)-3-{[3-(trifluoromethyl)-5,6-dihydro-[1,2,4]triazolo[4,3-a]pyrazin-7(8H)-yl]carbonyl}phenyl]ethyl} imidazolidin-4-one]",5.65 nM
3,"CC(C)CC(c1ccc(C(F)(F)F)c(C(=O)N2Cc3nccnc3C2)c1)N1C(=N)N[C@](CC2CCOCC2)(c2ccc(F)cc2)C1=O (stereo partly drawn) [Compound 14, (5R)-3-{1-[3-(5,7-dihydro-6H-pyrrolo[3,4-b]pyrazin-6-ylcarbonyl)-4-(trifluoromethyl)phenyl]-3-methylbutyl}-5-(4-fluorophenyl)-2-imino-5-(tetrahydro-2H-pyran-4-ylmethyl)imidazolidin-4-one]",1.77 nM
4,"N=C1N[C@](CCCC(F)(F)F)(c2ccc(F)cc2)C(=O)N1Cc1ccc(C(F)(F)F)c(C(=O)N2Cc3cnc(-c4cnc(-n5cccn5)nc4)nc3C2)c1 [Compound 69, (5R)-5-(4-fluorophenyl)-2-imino-3-[3-({2-[2-(1H-pyrazol-1-yl)pyrimidin-5-yl]-5,7-dihydro-6H-pyrrolo[3,4-d]pyrimidin-6-yl}carbonyl)-4-(trifluoromethyl)benzyl]-5-(4,4,4-trifluorobutyl)imidazolidin-4-one]",8.8 nM
5,"CC(=O)N1CCN(C(=O)c2cc(F)cc(CN3C(=N)NC(c4ccccc4)(c4ccccc4)C3=O)c2)CC1 [Compound 323, 3-{3-[(4-acetylpiperazin-1-yl)carbonyl]-5-fluorobenzyl}-2-imino-5,5-diphenylimidazolidin-4-one]",57 nM
6,"N=C1NC(c2ccccc2)(c2ccc(Br)cc2)C(=O)N1Cc1cccc(C(=O)N2Cc3ccccc3C2)c1 (stereo not shown) [Compound 213, 5-(4-bromophenyl)-3-[3-(1,3-dihydro-2H-isoindol-2-ylcarbonyl)benzyl]-2-imino-5-phenylimidazolidin-4-one]",9.77 nM
7,"N=C1NC(c2ccccc2)(c2ccccc2)C(=O)N1Cc1cccc(C(=O)N2CCn3c(nnc3C(F)(F)F)C2)c1 [Compound 329, 2-imino-5,5-diphenyl-3-(3-{[3-(trifluoromethyl)-5,6-dihydro[1,2,4]triazolo[4,3-a]pyrazin-7(8H)-yl]carbonyl}benzyl) imidazolidin-4-one]",66.9 nM
8,"N=C1NC(c2ccccc2)(c2ccccc2)C(=O)N1Cc1ccc(C(F)(F)F)c(C(=O)N2Cc3nccnc3C2)c1 [Compound 143, 3-[3-(5,7-dihydro-6H-pyrrolo[3,4-b]pyrazin-6-ylcarbonyl)-4-(trifluoromethyl)benzyl]-2-imino-5,5-diphenylimidazolidin-4-one]",3.43 nM
9,"CS(=O)(=O)CCn1cc(-c2ncc3c(n2)CN(C(=O)c2cc(CN4C(=N)N[C@](CCCC(F)(F)F)(c5ccc(F)cc5)C4=O)ccc2C(F)(F)F)C3)cn1 [Compound 17, (5R)-5-(4-fluorophenyl)-2-imino-3-{3-[(2-{1-[2-(methylsulfonyl)ethyl]-1H-pyrazol-4-yl}-5,7-dihydro-6H-pyrrolo[3,4-d]pyrimidin-6-yl)carbonyl]-4-(trifluoromethyl)-benzyl}-5-(4,4,4-trifluorobutyl)-imidazolidin-4-one]",1.99 nM
10,"N#Cc1ncc2c(n1)CN(C(=O)c1cccc(CN3C(=N)NC(c4ccccc4)(c4ccccc4)C3=O)c1)C2 [Compound 199, 6-({3-[(2-imino-5-oxo-4,4-diphenylimidazolidin-1-yl)methyl]phenyl}carbonyl)-6,7-dihydro-5H-pyrrolo[3,4-d]pyrimidine-2-carbonitrile]",5.59 nM
11,"N=C1NC(c2ccccc2)(c2ccccc2)C(=O)N1Cc1cccc(C(=O)N2CCN(c3ccc(F)cc3)CC2)c1 [Compound 359, 3-(3-{[4-(4-fluorophenyl)piperazin-1-yl]carbonyl}benzyl)-2-imino-5,5-diphenylimidazolidin-4-one]",93.9 nM
12,"N=C1N[C@](CCCC(F)(F)F)(c2ccc(F)cc2)C(=O)N1Cc1ccc(C(F)(F)F)c(C(=O)N2Cc3cnc(-c4cccc5[nH]ncc45)nc3C2)c1 [Compound 22, (5R)-5-(4-fluorophenyl)-2-imino-3-[3-{[2-(1H-indazol-4-yl)-5,7-dihydro-6H-pyirolo[3,4-d]pyrimidin-6-yl]carbonyl}-4-(trifluoromethyl)benzyl]-5-(4,4,4-trifluorobutyl)imidazolidin-4-one]",2.32 nM
13,"COc1ccc2c(c1)CCN(C(=O)c1cc(CN3C(=N)NC(CCC(C)C)(c4ccccc4)C3=O)ccc1C(F)(F)F)CC2 (stereo not shown) [Compound 154, 2-imino-3-{3-[(7-methoxy-1,2,4,5-tetrahydro-3H-3-benzazepin-3-yl)carbonyl]-4-(trifluoromethyl)-benzyl}-5-(3-methylbutyl)-5-phenylimidazolidin-4-one]",10.2 nM
14,"CC(C)CC[C@]1(c2ccccc2)NC(=N)N(C(CC(C)C)c2ccc(C(F)(F)F)c(C(=O)N3Cc4nccnc4C3)c2)C1=O (stereo partly drawn) [Compound 31, (5R)-3-{1-[3-(5,7-dihydro-6H-pyrrolo[3,4-b]pyrazin-6-ylcarbonyl)-4-(trifluoromethyl)-phenyl]-3-methylbutyl}-2-imino-5-(3-methylbutyl)-5-phenylimidazolidin-4-one]",3.13 nM
15,"N=C1NC(CCC2CC2)(c2ccc(C(F)(F)F)cc2)C(=O)N1Cc1ccc(C(F)(F)F)c(C(=O)N2CCn3c(nnc3C(F)(F)F)C2)c1 (stereo not shown) [Compound 131, 5-(2-cyclopropylethyl)-2-imino-5-[4-(trifluoromethyl)phenyl]-3-[4-(trifluoromethyl)-3-{[3-(trifluoromethyl)-5,6-dihydro-[1,2,4]triazolo[4,3-a]pyrazin-7(8H)-yl]carbonyl}benzyl] imidazolidin-4-one]",84.9 nM
16,"N=C1NC(c2ccccc2)(c2ccccc2)C(=O)N1Cc1ccc(Cl)c(C(=O)N2CCC(n3c(=O)[nH]c4ccccc43)CC2)c1 [Compound 383, 1-[1-({2-chloro-5-[(2-imino-5-oxo-4,4-diphenylimidazolidin-1-yl)methyl]phenyl}carbonyl)piperidin-4-yl]-1,3-dihydro-2H-benzimidazol-2-one]",14.7 nM
17,"CN1CCN(C(=O)c2cccc(CN3C(=N)NC(c4ccccc4)(c4ccccc4)C3=O)c2)CC1=O [Compound 358, 4-({3-[(2-imino-5-oxo-4,4-diphenylimidazolidin-1-yl)methyl]phenyl}carbonyl)-1-methylpiperazin-2-one]",93.6 nM
18,"CC(C)CC1(c2ccccc2)NC(=N)N(Cc2ccc(Cl)c(C(=O)N3Cc4cncnc4C3)c2)C1=O (stereo not shown) [Compound 373, 3-[4-chloro-3-(5,7-dihydro-6H-pyrrolo[3,4-d]pyrimidin-6-ylcarbonyl)benzyl]-2-imino-5-(2-methylpropyl)-5-phenylimidazolidin-4-one]",6.93 nM
19,"COC(=O)N1CCN(C(=O)c2cccc(CN3C(=N)NC(c4ccc(F)cc4)(c4cccc(C#N)c4)C3=O)c2)CC1 (stereo not shown) [Compound 350, methyl 4-[(3-{[4-(3-cyanophenyl)-4-(4-fluorophenyl)-2-imino-5-oxoimidazolidin-1-yl]methyl}phenyl)carbony1] piperazine-1-carboxylate]",85.3 nM
20,"CCOC(=O)c1nc2n(c1Cl)CCN(C(=O)c1cccc(CN3C(=N)NC(c4ccccc4)(c4ccccc4)C3=O)c1)C2 [Compound 209, ethyl 3-chloro-7-({3-[(2-imino-5-oxo-4,4-diphenylimidazolidin-1-yl)methyl]phenyl}carbonyl)-5,6,7,8-tetrahydroimidazo[1,2-a]pyrazine-2-carboxylate]",8.83 nM
21,"CC(C)CCC1(c2ccccc2)NC(=N)N(Cc2ccc(C(F)(F)F)c(C(=O)N3CCC3)c2)C1=O (stereo not shown) [Compound 166, 3-[3-(azetidin-1-ylcarbonyl)-4-(trifluoromethyl)benzyl]-2-imino-5-(3-methylbutyl)-5-phenylimidazolidin-4-one]",34.9 nM
22,"N=C1NC(c2ccc(F)cc2)(c2ccc(F)cc2)C(=O)N1Cc1ccc(Cl)c(C(=O)N2Cc3cncnc3C2)c1 [Compound 376, 3-[4-chloro-3-(5,7-dihydro-6H-pyrrolo[3,4-d]pyrimidin-6-ylcarbonyl)benzyl]-5,5-bis(4-fluorophenyl)-2-iminoimidazolidin-4-one]",9.6 nM
23,"CC(C)C[C@]1(c2ccccc2)NC(=N)N([C@H](C)c2ccc(C(F)(F)F)c(C(=O)N3Cc4nccnc4C3)c2)C1=O [Compound 147, (5R)-3-{(1R)-1-[3-(5,7-dihydro-6H-pyrrolo[3,4-b]pyrazin-6-ylcarbonyl)-4-(trifluoromethyl)phenyl]ethyl}-2-imino-5-(2-methylpropyl)-5-phenylimidazolidin-4-one]",4.75 nM
24,"C=Cc1c(C(F)(F)F)nc2n1CCN(C(=O)c1cccc(CN3C(=N)NC(c4ccccc4)(c4ccccc4)C3=O)c1)C2 [Compound 297, 3-(3-{[3-ethenyl-2-(trifluoromethyl)-5,6-dihydroimidazo [1,2-a]pyrazin-7(8H)-yl]carbonyl}benzyl)-2-imino-5,5-diphenylimidazolidin-4-one]",43.5 nM
25,"CC(C)CC1(c2ccccc2)NC(=N)N(Cc2ccc(C(F)(F)F)c(C(=O)N3CCC(F)(F)C3)c2)C1=O (stereo not shown) [Compound 177, 3-{3-[(3,3-difluoropyrrolidin-1-yl)carbonyl]-4-(trifluoromethyl)benzyl}-2-imino-5-(2-methylpropyl)-5-phenylimidazolidin-4-one]",70.3 nM

# Reference: patent US20200069691A1, “HETEROCYCLIC COMPOUNDS AS HIV PROTEASE INHIBITORS” (Merck Sharp & Dohme Corp., priority 2016, published 2020)
